From ChEMBL document CHEMBL1165859, “Synthesis, antiproliferative, acute toxicity and assessment of antiandrogenic activities of some newly synthesized steroidal lactams” (Eur J Med Chem, 2010)

Test: Cytotoxicity against Balb/C mouse macrophages assessed as cell mortality at 0.01 to 5 ug/ml after 24 hrs by MTT assay
Conditions: not given

Compound	mortality at 24 h [%]
C[C@]12CC[C@H](OC(=O)c3ccc(O)cc3)CC1=CC[C@@H]1[C@@H]2CC[C@]2(C)NC(=O)CC[C@@H]12	20

Test: Cytotoxicity against Balb/C mouse macrophages assessed as cell viability after 24 hrs by MTT assay
Assay type: cell-based
Conditions: Macrophage

Compound	LC50 [µM]
C[C@]12CC[C@H](OC(=O)c3ccc(Cl)cc3)CC1=CC[C@@H]1[C@@H]2CC[C@]2(C)NC(=O)CC[C@@H]12	100
CC(C)(C)NC(=O)[C@H]1CC[C@H]2[C@@H]3CC[C@H]4NC(=O)C=C[C@]4(C)[C@H]3CC[C@]12C [FINASTERIDE]	28.2
C[C@]12CC[C@H](OC(=O)c3ccc([N+](=O)[O-])cc3)CC1=CC[C@@H]1[C@@H]2CC[C@]2(C)NC(=O)CC[C@@H]12	27.8
COc1ccc(C(=O)O[C@H]2CC[C@@]3(C)C(=CC[C@@H]4[C@@H]3CC[C@]3(C)NC(=O)CC[C@@H]43)C2)cc1	8.4
Cc1ccc(C(=O)O[C@H]2CC[C@@]3(C)C(=CC[C@@H]4[C@@H]3CC[C@]3(C)NC(=O)CC[C@@H]43)C2)cc1	22.8
C[C@]12CC[C@H](OC(=O)c3ccc(N)cc3)CC1=CC[C@@H]1[C@@H]2CC[C@]2(C)NC(=O)CC[C@@H]12	25.1
C[C@]12CC[C@H](OC(=O)c3ccc(O)cc3)CC1=CC[C@@H]1[C@@H]2CC[C@]2(C)NC(=O)CC[C@@H]12	75
C[C@]12CC[C@H](OC(=O)COc3ccccc3)CC1=CC[C@@H]1[C@@H]2CC[C@]2(C)NC(=O)CC[C@@H]12	11.7
C[C@]12CC[C@H](OC(=O)CCl)CC1=CC[C@@H]1[C@@H]2CC[C@]2(C)NC(=O)CC[C@@H]12	94.1
C[C@]12CC[C@H](OC(=O)c3ccccc3)CC1=CC[C@@H]1[C@@H]2CC[C@]2(C)NC(=O)CC[C@@H]12	43.6
